# In EPA's CvTdb concentration-time database:
# Columns and labels:
# Rat [1] = experiment: concentration in adipose after dosing; settings: 960 h; dosed: 2,3,7,8-Tetrachlorodibenzo-p-dioxin; 0.0001 mg/kg; oral; Female; Sprague-Dawley
# Rat [2] = experiment: concentration in adipose after dosing; settings: 480 h; dosed: 2,3,7,8-Tetrachlorodibenzo-p-dioxin; 0.0001 mg/kg; oral; Female; Sprague-Dawley
# Rat [3] = experiment: concentration in adipose after dosing; settings: 2400 h; dosed: 2,3,7,8-Tetrachlorodibenzo-p-dioxin; 0.0001 mg/kg; oral; Female; Sprague-Dawley
# Rat [4] = experiment: concentration in adipose after dosing; settings: 480 h; dosed: 2,3,7,8-Tetrachlorodibenzo-p-dioxin; 0.0001 mg/kg; oral; Female; Sprague-Dawley; remark: listed apart in the source
# Rat [5] = experiment: concentration in liver after dosing; settings: 24 h; dosed: 2,3,7,8-Tetrachlorodibenzo-p-dioxin; 0.0001 mg/kg; oral; Female; Sprague-Dawley
# Rat [6] = experiment: concentration in adipose after dosing; settings: 480 h; dosed: 2,3,7,8-Tetrachlorodibenzo-p-dioxin; 0.0001 mg/kg; oral; Female; Sprague-Dawley; remark: listed apart in the source
# Rat [7] = experiment: concentration in adipose after dosing; settings: 1680 h; dosed: 2,3,7,8-Tetrachlorodibenzo-p-dioxin; 0.0001 mg/kg; oral; Female; Sprague-Dawley
# Rat [8] = experiment: concentration in adipose (perirenal) after dosing; settings: 480 h; dosed: 2,3,7,8-Tetrachlorodibenzo-p-dioxin; 0.0001 mg/kg; oral; Female; Sprague-Dawley
# Rat [9] = experiment: concentration in liver after dosing; settings: 24 h; dosed: 2,3,7,8-Tetrachlorodibenzo-p-dioxin; 0.0001 mg/kg; oral; Female; Sprague-Dawley; remark: listed apart in the source
# Rat [10] = experiment: concentration in adipose after dosing; settings: 48 h; dosed: 2,3,7,8-Tetrachlorodibenzo-p-dioxin; 0.0001 mg/kg; oral; Female; Sprague-Dawley
# Rat [11] = experiment: concentration in adipose after dosing; settings: dosed: 2,3,7,8-Tetrachlorodibenzo-p-dioxin, oral, Female, Sprague-Dawley
# Rat [12] = experiment: concentration in adipose (perirenal) after dosing; settings: 48 h; dosed: 2,3,7,8-Tetrachlorodibenzo-p-dioxin; 0.0001 mg/kg; oral; Female; Sprague-Dawley
# Rat [13] = experiment: concentration in adipose (perirenal) after dosing; settings: dosed: 2,3,7,8-Tetrachlorodibenzo-p-dioxin, oral, Female, Sprague-Dawley
# Rat [14] = experiment: concentration in adipose (perirenal) after dosing; settings: 48 h; dosed: 2,3,7,8-Tetrachlorodibenzo-p-dioxin; 0.0001 mg/kg; oral; Female; Sprague-Dawley; remark: listed apart in the source
# Rat [15] = experiment: concentration in adipose after dosing; settings: 48 h; dosed: 2,3,7,8-Tetrachlorodibenzo-p-dioxin; 0.0001 mg/kg; oral; Female; Sprague-Dawley; remark: listed apart in the source
# Rat [16] = experiment: concentration in adipose (perirenal) after dosing; settings: 48 h; dosed: 2,3,7,8-Tetrachlorodibenzo-p-dioxin; 0.0001 mg/kg; oral; Female; Sprague-Dawley; remark: listed apart in the source
# Rat [17] = experiment: concentration in adipose after dosing; settings: 1680 h; dosed: 2,3,7,8-Tetrachlorodibenzo-p-dioxin; 0.0001 mg/kg; oral; Female; Sprague-Dawley; remark: listed apart in the source
# Rat [18] = experiment: concentration in adipose (perirenal) after dosing; settings: 2400 h; dosed: 2,3,7,8-Tetrachlorodibenzo-p-dioxin; 0.0001 mg/kg; oral; Female; Sprague-Dawley
# Rat [19] = experiment: concentration in lung after dosing; settings: dosed: 2,3,7,8-Tetrachlorodibenzo-p-dioxin, oral, Female, Sprague-Dawley
# Rat [20] = experiment: concentration in adipose (perirenal) after dosing; settings: 1680 h; dosed: 2,3,7,8-Tetrachlorodibenzo-p-dioxin; 0.0001 mg/kg; oral; Female; Sprague-Dawley
# Rat [21] = experiment: concentration in adipose after dosing; settings: 8 h; dosed: 2,3,7,8-Tetrachlorodibenzo-p-dioxin; 0.0001 mg/kg; oral; Female; Sprague-Dawley
# Rat [22] = experiment: concentration in adipose (perirenal) after dosing; settings: 480 h; dosed: 2,3,7,8-Tetrachlorodibenzo-p-dioxin; 0.0001 mg/kg; oral; Female; Sprague-Dawley; remark: listed apart in the source
# Rat [23] = experiment: concentration in plasma after dosing; settings: dosed: 2,3,7,8-Tetrachlorodibenzo-p-dioxin, 0.0001 mg/kg, oral, Female, Sprague-Dawley
# Rat [24] = experiment: concentration in adipose (perirenal) after dosing; settings: 960 h; dosed: 2,3,7,8-Tetrachlorodibenzo-p-dioxin; 0.0001 mg/kg; oral; Female; Sprague-Dawley
# Rat [25] = experiment: concentration in liver after dosing; settings: 24 h; dosed: 2,3,7,8-Tetrachlorodibenzo-p-dioxin; 0.0001 mg/kg; oral; Female; Sprague-Dawley; remark: listed apart in the source
# Rat [26] = experiment: concentration in adipose (perirenal) after dosing; settings: 2400 h; dosed: 2,3,7,8-Tetrachlorodibenzo-p-dioxin; 0.0001 mg/kg; oral; Female; Sprague-Dawley; remark: listed apart in the source
# Rat [27] = experiment: concentration in adipose after dosing; settings: 48 h; dosed: 2,3,7,8-Tetrachlorodibenzo-p-dioxin; 0.0001 mg/kg; oral; Female; Sprague-Dawley; remark: listed apart in the source
# Rat [28] = experiment: concentration in adipose after dosing; settings: 1680 h; dosed: 2,3,7,8-Tetrachlorodibenzo-p-dioxin; 0.0001 mg/kg; oral; Female; Sprague-Dawley; remark: listed apart in the source
# Rat [29] = experiment: concentration in adipose after dosing; settings: 960 h; dosed: 2,3,7,8-Tetrachlorodibenzo-p-dioxin; 0.00005 mg/kg; oral; Female; Sprague-Dawley
# Rat [30] = experiment: concentration in adipose (perirenal) after dosing; settings: 1680 h; dosed: 2,3,7,8-Tetrachlorodibenzo-p-dioxin; 0.0001 mg/kg; oral; Female; Sprague-Dawley; remark: listed apart in the source
# Rat [31] = experiment: concentration in adipose (perirenal) after dosing; settings: 960 h; dosed: 2,3,7,8-Tetrachlorodibenzo-p-dioxin; 0.0001 mg/kg; oral; Female; Sprague-Dawley; remark: listed apart in the source
# Rat [32] = experiment: concentration in liver after dosing; settings: dosed: 2,3,7,8-Tetrachlorodibenzo-p-dioxin, oral, Female, Sprague-Dawley
# Rat [33] = experiment: concentration in adipose (perirenal) after dosing; settings: 1680 h; dosed: 2,3,7,8-Tetrachlorodibenzo-p-dioxin; 0.0001 mg/kg; oral; Female; Sprague-Dawley; remark: listed apart in the source
# Rat [34] = experiment: concentration in adipose (perirenal) after dosing; settings: 48 h; dosed: 2,3,7,8-Tetrachlorodibenzo-p-dioxin; 0.00005 mg/kg; oral; Female; Sprague-Dawley
# Rat [35] = experiment: concentration in adipose after dosing; settings: 960 h; dosed: 2,3,7,8-Tetrachlorodibenzo-p-dioxin; 0.0001 mg/kg; oral; Female; Sprague-Dawley; remark: listed apart in the source
# Rat [36] = experiment: concentration in adipose (perirenal) after dosing; settings: 48 h; dosed: 2,3,7,8-Tetrachlorodibenzo-p-dioxin; 0.0001 mg/kg; oral; Female; Sprague-Dawley; remark: listed apart in the source
# Rat [37] = experiment: concentration in adipose (perirenal) after dosing; settings: 960 h; dosed: 2,3,7,8-Tetrachlorodibenzo-p-dioxin; 0.0001 mg/kg; oral; Female; Sprague-Dawley; remark: listed apart in the source
# Rat [38] = experiment: concentration in adipose (perirenal) after dosing; settings: 480 h; dosed: 2,3,7,8-Tetrachlorodibenzo-p-dioxin; 0.0001 mg/kg; oral; Female; Sprague-Dawley; remark: listed apart in the source
# Rat [39] = experiment: concentration in adipose (perirenal) after dosing; settings: 48 h; dosed: 2,3,7,8-Tetrachlorodibenzo-p-dioxin; 0.00005 mg/kg; oral; Female; Sprague-Dawley; remark: listed apart in the source
# Rat [40] = experiment: concentration in liver after dosing; settings: 24 h; dosed: 2,3,7,8-Tetrachlorodibenzo-p-dioxin; 0.0001 mg/kg; oral; Female; Sprague-Dawley; remark: listed apart in the source
# Rat [41] = experiment: concentration in adipose (perirenal) after dosing; settings: 2400 h; dosed: 2,3,7,8-Tetrachlorodibenzo-p-dioxin; 0.0001 mg/kg; oral; Female; Sprague-Dawley; remark: listed apart in the source
# Rat [42] = experiment: concentration in adipose after dosing; settings: 480 h; dosed: 2,3,7,8-Tetrachlorodibenzo-p-dioxin; 0.00005 mg/kg; oral; Female; Sprague-Dawley
# Rat [43] = experiment: concentration in liver after dosing; settings: 24 h; dosed: 2,3,7,8-Tetrachlorodibenzo-p-dioxin; 0.00005 mg/kg; oral; Female; Sprague-Dawley
# Rat [44] = experiment: concentration in adipose after dosing; settings: 48 h; dosed: 2,3,7,8-Tetrachlorodibenzo-p-dioxin; 0.0001 mg/kg; oral; Female; Sprague-Dawley; remark: listed apart in the source
# Rat [45] = experiment: concentration in adipose after dosing; settings: 960 h; dosed: 2,3,7,8-Tetrachlorodibenzo-p-dioxin; 0.0001 mg/kg; oral; Female; Sprague-Dawley; remark: listed apart in the source
# Rat [46] = experiment: concentration in adipose (perirenal) after dosing; settings: 48 h; dosed: 2,3,7,8-Tetrachlorodibenzo-p-dioxin; 0.0001 mg/kg; oral; Female; Sprague-Dawley; remark: listed apart in the source
smiles,measurement,setting,value
"Clc1cc2c(cc1Cl)Oc1cc(Cl)c(Cl)cc1O2 [2,3,7,8-Tetrachlorodibenzo-p-dioxin]",concentration in adipose,Rat [1],294 pg/g
same,concentration in adipose,Rat [2],422 pg/g
same,concentration in adipose,Rat [3],186 pg/g
same,concentration in adipose,Rat [4],372 pg/g
same,concentration in liver,Rat [5],1310 pg/g
same,concentration in adipose,Rat [6],537 pg/g
same,concentration in adipose,Rat [7],220 pg/g
same,concentration in adipose,Rat [8],483 pg/g
same,concentration in liver,Rat [9],1300 pg/g
same,concentration in adipose,Rat [10],292 pg/g
same,concentration in adipose,"Rat [11]; 8 h, 0.00005 mg/kg",120 pg/g
same,concentration in adipose,"Rat [11]; 8 h, 0.0001 mg/kg",218 pg/g
same,concentration in adipose,"Rat [11]; 48 h, 0.0001 mg/kg",303 pg/g
same,concentration in adipose,"Rat [11]; 480 h, 0.00005 mg/kg",110 pg/g
same,concentration in adipose,"Rat [11]; 480 h, 0.0001 mg/kg",428 pg/g
same,concentration in adipose,"Rat [11]; 960 h, 0.00005 mg/kg",93 pg/g
same,concentration in adipose,"Rat [11]; 960 h, 0.0001 mg/kg",171 pg/g
same,concentration in adipose,"Rat [11]; 1680 h, 0.0001 mg/kg",134 pg/g
same,concentration in adipose,"Rat [11]; 2400 h, 0.00005 mg/kg",93 pg/g
same,concentration in adipose,"Rat [11]; 2400 h, 0.0001 mg/kg",156 pg/g
same,concentration in adipose,Rat [12],379 pg/g
same,concentration in adipose,"Rat [13]; 8 h, 0.0001 mg/kg",135 pg/g
same,concentration in adipose,"Rat [13]; 48 h, 0.00005 mg/kg",416 pg/g
same,concentration in adipose,"Rat [13]; 48 h, 0.0001 mg/kg",371 pg/g
same,concentration in adipose,"Rat [13]; 480 h, 0.00005 mg/kg",260 pg/g
same,concentration in adipose,"Rat [13]; 480 h, 0.0001 mg/kg",190 pg/g
same,concentration in adipose,"Rat [13]; 960 h, 0.00005 mg/kg",146 pg/g
same,concentration in adipose,"Rat [13]; 960 h, 0.0001 mg/kg",172 pg/g
same,concentration in adipose,"Rat [13]; 1680 h, 0.0001 mg/kg",103 pg/g
same,concentration in adipose,"Rat [13]; 2400 h, 0.0001 mg/kg",112 pg/g
same,concentration in adipose,Rat [14],260 pg/g
same,concentration in adipose,Rat [15],497 pg/g
same,concentration in adipose,Rat [16],402 pg/g
same,concentration in adipose,Rat [17],152 pg/g
same,concentration in adipose,Rat [18],271 pg/g
same,concentration in lung,"Rat [19]; 960 h, 0.00005 mg/kg",465 pg/g
same,concentration in lung,"Rat [19]; 1680 h, 0.0001 mg/kg",201 pg/g
same,concentration in adipose,Rat [20],143 pg/g
same,concentration in adipose,Rat [21],260 pg/g
same,concentration in adipose,Rat [22],384 pg/g
same,concentration in plasma,Rat [23]; 1.5 h,0.104 ng/mL
same,concentration in plasma,Rat [23]; 48 h,0.631 ng/mL
same,concentration in plasma,Rat [23]; 144 h,0.106 ng/mL
same,concentration in plasma,Rat [23]; 240 h,0.161 ng/mL
same,concentration in plasma,Rat [23]; 360 h,0.184 ng/mL
same,concentration in adipose,Rat [24],298 pg/g
same,concentration in liver,Rat [25],1200 pg/g
same,concentration in adipose,Rat [26],218 pg/g
same,concentration in adipose,Rat [27],374 pg/g
same,concentration in adipose,Rat [28],279 pg/g
same,concentration in adipose,Rat [29],116 pg/g
same,concentration in adipose,Rat [30],213 pg/g
same,concentration in adipose,Rat [31],264 pg/g
same,concentration in liver,"Rat [32]; 24 h, 0.00005 mg/kg",472 pg/g
same,concentration in liver,"Rat [32]; 24 h, 0.0001 mg/kg",1630 pg/g
same,concentration in liver,"Rat [32]; 480 h, 0.00005 mg/kg",271 pg/g
same,concentration in liver,"Rat [32]; 480 h, 0.0001 mg/kg",307 pg/g
same,concentration in liver,"Rat [32]; 960 h, 0.00005 mg/kg",205 pg/g
same,concentration in liver,"Rat [32]; 1680 h, 0.0001 mg/kg",288 pg/g
same,concentration in adipose,Rat [33],212 pg/g
same,concentration in adipose,Rat [34],236 pg/g
same,concentration in adipose,Rat [35],294 pg/g
same,concentration in adipose,Rat [36],469 pg/g
same,concentration in adipose,Rat [37],305 pg/g
same,concentration in adipose,Rat [38],490 pg/g
same,concentration in adipose,Rat [39],148 pg/g
same,concentration in liver,Rat [40],1450 pg/g
same,concentration in adipose,Rat [41],106 pg/g
same,concentration in adipose,Rat [42],95 pg/g
same,concentration in liver,Rat [43],515 pg/g
same,concentration in adipose,Rat [44],397 pg/g
same,concentration in adipose,Rat [45],159 pg/g
same,concentration in adipose,Rat [46],407 pg/g
